Bounds are passed on as bounds.

The target in the test is BRD4 (BDI_K57-E168) (Homo sapiens, UniProt O60885). The test can be described thus: TR-FRET bromodomain binding assay, BRD4 first bromodomain (BDI). The note with it: mean Ki; 12 nM His tagged BRD4 (BDI_K57-E168), 100 nM Alexa647 probe; Ki calculated from IC50, probe Kd and probe concentration. Here is the method: A time-resolved fluorescence resonance energy transfer (TR-FRET) assay was used to determine the affinities of compounds of the Examples listed in Table 1 for each bromodomain of BRD4. […] An Alexa647-labeled BET-inhibitor was used as the fluorescent probe in the assay.
Compound dilution series were prepared in DMSO via an approximately 3-fold serial dilution. Compound dilutions were added directly into white, low-volume assay plates (Perkin Elmer Proxiplate 384 Plus# 6008280) using a Labcyte Echo in conjunction with Labcyte Access and Thermo Multidrop CombinL robotics. Compounds were then suspended in eight microliters (μL) of assay buffer (20 mM Sodium Phosphate, pH 6.0, 50 mM NaCl, 1 mM Ethylenediaminetetraacetic acid disodium salt dihydrate, 0.01% Triton X-100, 1 mM DL-Dithiothreitol) containing His-tagged bromodomain, Europium-conjugated anti-His antibody (Invitrogen PV5596) and Alexa-647-conjugated probe.
After a one-hour equilibration at room temperature, TR-FRET ratios were determined using an Envision multilabel plate reader (Ex 340, Em 495/520).
TR-FRET data were normalized to the means of 24 no-compound controls (“high”) and 8 controls containing 1 μM un-labeled probe (“low”). Percent inhibition was plotted as a function of compound concentration and the data were fit with the 4 parameter logistic equation to obtain IC50s. Inhibition constants (Ki) were calculated from the IC50s, probe Kd and probe concentration.
As to `CN1C(=O)[C@@]2(C[C@H]2c2cn(C)c(=O)c3[nH]c(C4CN(C(=O)OC(C)(C)C)C4)cc23)c2ccccc21` (racemic) [Example 32, rac-tert-butyl 3-{6-methyl-4-[(1R,2S)-1′-methyl-2′oxo-1′,2′-dihydrospiro[cyclopropane-1,3′-indol]-2-yl]-7-oxo-6,7-dihydro-1H-pyrrolo [2,3-c]pyridin-2-yl}azetidine-1-carboxylate], the Ki (as a rule, a dissociation constant, usually derived from enzyme kinetics or from competition with a known ligand) is 2410 nM.

Consider `CN1C(=O)[C@@]2(C[C@H]2c2cn(C)c(=O)c3[nH]c(-c4cnn(C)c4)cc23)c2ccccc21` (racemic) [Example 33, rac-(1R,2S)-1′-methyl-2-[6-methyl-2-(1-methyl-1H-pyrazol-4-yl)-7-oxo-6,7-dihydro-1H-pyrrolo[2,3-c]pyridin-4-yl]spiro[cyclopropane-1,3′-indol]-2′(1H)-one], for which the inhibition constant Ki is 531 nM.

For the compound `Cc1nn(C)cc1-c1cc2c([C@@H]3C[C@@]34C(=O)N(C)c3ccccc34)cn(C)c(=O)c2[nH]1` (racemic) [Example 36, rac-(1R,2S)-2-[2-(1,3-dimethyl-1H-pyrazol-4-yl)-6-methyl-7-oxo-6,7-dihydro-1H-pyrrolo[2,3-c]pyridin-4-yl]-1′-methylspiro[cyclopropane-1,3′-indol]-2′(1H)-one], the Ki is greater than 13000 nM.

For the compound `CN1C(=O)[C@@]2(C[C@H]2c2cn(C)c(=O)c3[nH]c(-c4cc[nH]n4)cc23)c2ccccc21` (racemic) [Example 37, rac-(1R,2S)-1′-methyl-2-[6-methyl-7-oxo-2-(1H-pyrazol-3-yl)-6,7-dihydro-1H-pyrrolo[2,3-c]pyridin-4-yl]spiro[cyclopropane-1,3′-indol]-2′(1H)-one], the Ki is 1250 nM.

As to `CN1C(=O)[C@@]2(C[C@@H]2c2cn(C)c(=O)c3[nH]c(-c4cc[nH]n4)cc23)c2ccccc21` (racemic) [Example 38, rac-(1R,2R)-1′-methyl-2-[6-methyl-7-oxo-2-(1H-pyrazol-3-yl)-6,7-dihydro-1H-pyrrolo[2,3-c]pyridin-4-yl]spiro[cyclopropane-1,3′-indol]-2′(1H)-one], the inhibition constant Ki is greater than 13000 nM.

As for `Cc1cc(-c2cc3c([C@@H]4C[C@@]45C(=O)N(C)c4ccccc45)cn(C)c(=O)c3[nH]2)on1` (racemic) [Example 39, rac-(1R,2S)-1′-methyl-2-[6-methyl-2-(3-methyl-1,2-oxazol-5-yl)-7-oxo-6,7-dihydro-1H-pyrrolo[2,3-c]pyridin-4-yl]spiro[cyclopropane-1,3′-indol]-2′(1H)-one], the inhibition constant (Ki) is 885 nM.

With `Cc1cc(-c2cc3c([C@H]4C[C@@]45C(=O)N(C)c4ccccc45)cn(C)c(=O)c3[nH]2)on1` (racemic) [Example 40, rac-(1R,2R)-1′-methyl-2-[6-methyl-2-(3-methyl-1,2-oxazol-5-yl)-7-oxo-6,7-dihydro-1H-pyrrolo[2,3-c]pyridin-4-yl]spiro[cyclopropane-1,3′-indol]-2′(1H)-one], the Ki was greater than 13000 nM.

With `CN1C(=O)[C@@]2(C[C@H]2c2cn(C)c(=O)c3[nH]c(-c4nccn4C)cc23)c2ccccc21` (racemic) [Example 41, rac-(1R,2S)-1′-methyl-2-[6-methyl-2-(1-methyl-1H-imidazol-2-yl)-7-oxo-6,7-dihydro-1H-pyrrolo[2,3-c]pyridin-4-yl]spiro[cyclopropane-1,3′-indol]-2′(1H)-one], the inhibitory constant (Ki) was 1490 nM.

Regarding `CN1C(=O)[C@@]2(C[C@H]2c2cn(C)c(=O)c3[nH]c(-c4ncco4)cc23)c2ccccc21` (racemic) [Example 42, rac-(1R,2S)-1′-methyl-2-[6-methyl-2-(1,3-oxazol-2-yl)-7-oxo-6,7-dihydro-1H-pyrrolo[2,3-c]pyridin-4-yl]spiro[cyclopropane-1,3′-indol]-2′(1H)-one], the inhibition constant (Ki) was 2820 nM.

Regarding `CN1C(=O)[C@@]2(C[C@H]2c2cn(C)c(=O)c3[nH]c(-c4cn(C)cn4)cc23)c2ccccc21` (racemic) [Example 43, rac-(1R,2S)-1′-methyl-2-[6-methyl-2-(1-methyl-1H-imidazol-4-yl)-7-oxo-6,7-dihydro-1H-pyrrolo[2,3-c]pyridin-4-yl]spiro[cyclopropane-1,3′-indol]-2′(1H)-one], the Ki was 1840 nM.

Turning to `CN1C(=O)[C@@]2(C[C@H]2c2cn(C)c(=O)c3[nH]c(-c4cncn4C)cc23)c2ccccc21` (racemic) [Example 44, rac-(1R,2S)-1′-methyl-2-[6-methyl-2-(1-methyl-1H-imidazol-5-yl)-7-oxo-6,7-dihydro-1H-pyrrolo[2,3-c]pyridin-4-yl]spiro[cyclopropane-1,3′-indol]-2′(1H)-one], the inhibition constant (Ki) was 1300 nM.

For `CN1C(=O)[C@@]2(C[C@H]2c2cn(C)c(=O)c3[nH]c(-c4ccccn4)cc23)c2ccccc21` (racemic) [Example 45, rac-(1R,2S)-1′-methyl-2-[6-methyl-7-oxo-2-(pyridin-2-yl)-6,7-dihydro-1H-pyrrolo[2,3-c]pyridin-4-yl]spiro[cyclopropane-1,3′-indol]-2′(1H)-one], the Ki was greater than 13000 nM.

`Cc1ccnc(-c2cc3c([C@@H]4C[C@@]45C(=O)N(C)c4ccccc45)cn(C)c(=O)c3[nH]2)c1` (racemic) [Example 46, rac-(1R,2S)-1′-methyl-2-[6-methyl-2-(4-methylpyridin-2-yl)-7-oxo-6,7-dihydro-1H-pyrrolo[2,3-c]pyridin-4-yl]spiro[cyclopropane-1,3′-indol]-2′(1H)-one]: the Ki was greater than 13000 nM.

On to `CN1C(=O)[C@@]2(C[C@H]2c2cn(C)c(=O)c3[nH]c(-c4cccnc4)cc23)c2ccccc21` (racemic) [Example 47, rac-(1R,2S)-1′-methyl-2-[6-methyl-7-oxo-2-(pyridin-3-yl)-6,7-dihydro-1H-pyrrolo[2,3-c]pyridin-4-yl]spiro[cyclopropane-1,3′-indol]-2′(1H)-one], for which the inhibitory constant (Ki) was 2620 nM.

Regarding `CN1C(=O)[C@@]2(C[C@H]2c2cn(C)c(=O)c3[nH]c(-c4ccncc4)cc23)c2ccccc21` (racemic) [Example 50, rac-(1R,2S)-1′-methyl-2-[6-methyl-7-oxo-2-(pyridin-4-yl)-6,7-dihydro-1H-pyrrolo[2,3-c]pyridin-4-yl]spiro[cyclopropane-1,3′-indol]-2′(1H)-one], the inhibition constant Ki is 1280 nM.

Take `CN1C(=O)[C@@]2(C[C@H]2c2cn(C)c(=O)c3[nH]c(-c4ccnc(C(F)(F)F)c4)cc23)c2ccccc21` (racemic) [Example 51, rac-(1R,2S)-1′-methyl-2-{6-methyl-7-oxo-2-[2-(trifluoromethyl)pyridin-4-yl]-6,7-dihydro-1H-pyrrolo[2,3-c]pyridin-4-yl}spiro[cyclopropane-1,3′-indol]-2′(1H)-one]: the Ki is 4680 nM.

As for `CN1C(=O)[C@@]2(C[C@H]2c2cn(C)c(=O)c3[nH]c(-c4cncnc4)cc23)c2ccccc21` (racemic) [Example 54, rac-(1R,2S)-1′-methyl-2-[6-methyl-7-oxo-2-(pyrimidin-5-yl)-6,7-dihydro-1H-pyrrolo[2,3-c]pyridin-4-yl]spiro[cyclopropane-1,3′-indol]-2′(1H)-one], the Ki was 1080 nM.

`CN1C(=O)[C@@]2(C[C@H]2c2cn(C)c(=O)c3[nH]c(-c4ccncn4)cc23)c2ccccc21` (racemic) [Example 55, rac-(1R,2S)-1′-methyl-2-[6-methyl-7-oxo-2-(pyrimidin-4-yl)-6,7-dihydro-1H-pyrrolo[2,3-c]pyridin-4-yl]spiro[cyclopropane-1,3′-indol]-2′(1H)-one]: the inhibition constant Ki was 3420 nM.

The values are drawn from US20210130346A1, “Bromodomain Inhibitors” (AbbVie Inc., priority 2017, published 2021).
